Data from patent US20140329706A1, “AFFINITY TAGS, AND RELATED AFFINITY LIGANDS, ENGINEERED PROTEINS, MODIFIED SUPPORTS, COMPOSITIONS, METHODS AND SYSTEMS” (CALIFORNIA INSTITUTE OF TECHNOLOGY, priority 2013, published 2014).
Where two headings read alike, the source gives them in different places. Where no end group is shown, it is not given here. MBP = maltose binding protein (fusion tag)

Experiments:
[1] = untagged LacZ, Wallenfels & Malhotra, cited from earlier work
PDZ2 domain of PSD-95 = PDZ2 domain of PSD-95 (Rattus norvegicus, UniProt P31016); conditions: cited from earlier work
PDZ1 domain of PSD-95 = PDZ1 domain of PSD-95 (Rattus norvegicus, UniProt P31016); conditions: cited from earlier work
[2] = tested on: NR2B C-terminal PDZ domain binding peptide, 1× nNOS PDZ-β-hairpin domains or 2× nNOS PDZ-β-hairpin domains; experiment: Binding of control MBP or GST to peptide and nNOS PDZ affinity resins; conditions: expressed alone without a PDZ domain
Excerpt: In order to test the hypothesis, PSD-95 PDZ2 domains (e.g. Type C PDZ affinity tags) were fused N- or C-terminally to MBP, or internally between an MBP and GST proteins and purified using affinity chromatography resins comprised of NR2B C-terminal PDZ domain binding peptide (H3N+-[…]-COO—), 1× nNOS PDZ-β-hairpin domains or 2× nNOS PDZ-β-hairpin domains. […] Tags performed equally when fused internally or C-terminally, however N-terminal tag fusions were purified in slightly lower yield.
For the experiment, MBP, GST and PSD-95 PDZ2 domains protein or fusion proteins consisting of MBP and/or GST fused in frame with N-terminal, internal or C-terminal PSD-95 PDZ2 domains (e.g. Type C PDZ affinity tags) were expressed in BL21(DE3) E. coli cells. […] Bacterial cell pellets (0.4-2.5 grams) containing the proteins of interest were resuspended in 5 ml/g cell paste of BugBuster Lysis Buffer [1× BugBuster (Cat. No. 70921, EMD Millipore, Billerica Mass.), 50 mM HEPES, 150 mM NaCl, 5 mM TCEP, 0.5 mM EDTA, 10 mM MgCl2, 2 mM PMSF, Complete Protease Inhibitor supplemented with 25 U/ml Benzonase and 10 U/ml ReadyLyse]. […] Eluted protein was analyzed on 4-12% bis-tris SDS-PAGE gels and proteins were detected by Gel Code Blue staining.

[3] = refs (54-58); read-out: approximate KD; cited from earlier work
[4] = target: T1, PSD-95 PDZ2 coupled to a solid support (Mus musculus, UniProt Q62108); experiment: Binding of NR2B tail truncation fusion proteins to PSD-95 PDZ2 affinity resin; conditions: elution with SIESDV peptide, SDS-PAGE
T1 construct: pJExpress414 plasmids containing a gene coding for the PDZ2 domain of PSD-95; made in house; host or cells: E. coli BL21(DE3)
T1 sequence (Q62108 160-246 limits assumed): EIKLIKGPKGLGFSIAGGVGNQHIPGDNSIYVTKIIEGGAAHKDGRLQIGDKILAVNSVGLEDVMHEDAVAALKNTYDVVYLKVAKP
Description: For the experiment, fusion proteins containing THX fused to varying numbers of residues from the NR2B Tail ([…]) were expressed in BL21(DE3) E. coli cells. Single colonies of BL21(DE3) cells harboring pJExpress414 plasmids containing genes of interest were grown overnight at 37° C. in 5 ml of lysogeny broth (LB) (Cat. No. L9110, Teknova, Hollister, Calif.) supplemented with 100 ug/ml carbenicillin. Overnight cultures were diluted 1:500 into Overnight Express Instant Terrific Broth (TB) Media (Cat. No. 71491, EMD Millipore, Billerica, Mass.), grown for 16 h at 37° C., pelleted by centrifugation, and flash frozen in liquid nitrogen. Bacterial cell pellets (0.4-2.5 grams) containing fusions of THX fused to varying numbers of residues from the NR2B Tail ([…]) were resuspended in 5 ml/g cell paste of BugBuster Lysis Buffer [1× BugBuster (Cat. No. 70921, EMD Millipore, Billerica Mass.), 50 mM HEPES, 150 mM NaCl, 5 mM TCEP, 0.5 mM EDTA, 10 mM MgCl2, 2 mM PMSF, Complete Protease Inhibitor supplemented with 25 U/ml Benzonase and 10 U/ml ReadyLyse]. Resuspended cells were incubated on a shaking platform at low speed for 20 minutes at room temperature before the lysate was clarified by centrifugation at 16,000×g for 30 min at 4° C. […] Eluted protein was analyzed on 4-12% bis-tris SDS-PAGE gels and proteins were detected by Gel Code Blue staining.
For the experiment, fusion proteins containing MBP fused to varying numbers of residues from the NR2B Tail ([…]) were expressed in BL21(DE3) E. coli cells. […] Bacterial cell pellets (0.4-2.5 grams) containing fusions of MBP fused to varying numbers of residues from the NR2B Tail ([…]) were resuspended in 5 ml/g cell paste of BugBuster Lysis Buffer [1× BugBuster (Cat. No. 70921, EMD Millipore, Billerica Mass.), 50 mM HEPES, 150 mM NaCl, 5 mM TCEP, 0.5 mM EDTA, 10 mM MgCl2, 2 mM PMSF, Complete Protease Inhibitor supplemented with 25 U/ml Benzonase and 10 U/ml ReadyLyse]. […]

Substance: LacZ: untagged β-Galactosidase, literature values
- Km ([1]; ONPG): 161 µM
- VMAX (umol ONPG/mg protein*min) [1]: 178* umol ONPG/mg protein*min

Substance: SIESDV
- Kd (PDZ2 domain of PSD-95; ref (49)): 700 nM
- Kd (PDZ2 domain of PSD-95; ref (134)): 1300 nM
- Kd (PDZ1 domain of PSD-95; ref (49)): 2300 nM
- Kd (PDZ1 domain of PSD-95; ref (134)): 9700 nM

Substance: GST: glutathione-S-transferase, known affinity tag and control fusion partner
- binding to affinity resins [2]: did not bind to any of the three affinity resins
- Kd [3]: 40000 to 170000 nM

Substance: MBP-EKLSSIESD: MBP fused to NR2B tail sequence lacking the C-terminal valine ({MBP}-EKLSSIESD)
- binding to and elution from PSD-95 PDZ2 matrix [4]: abolished binding to the column

Substance: GST-EKLSSIESD: GST fused to NR2B tail sequence lacking the C-terminal valine ({GST}-EKLSSIESD)
- binding to and elution from PSD-95 PDZ2 matrix [4]: abolished binding to the column

Substance: IESDV
- binding to and elution from PSD-95 PDZ2 matrix [4]: required for effective binding to and elution from the PDZ2 PSD-95 matrix
